Columns and labels:
[1] = target: T1, staphylococcal nuclease domain-containing protein 1 (SND1) (Homo sapiens, UniProt Q7KZF4); assay: TMT LC-MSMS of 11-labelled proteins; assay type: cell-based
T1 sequence (Q7KZF4 1-910): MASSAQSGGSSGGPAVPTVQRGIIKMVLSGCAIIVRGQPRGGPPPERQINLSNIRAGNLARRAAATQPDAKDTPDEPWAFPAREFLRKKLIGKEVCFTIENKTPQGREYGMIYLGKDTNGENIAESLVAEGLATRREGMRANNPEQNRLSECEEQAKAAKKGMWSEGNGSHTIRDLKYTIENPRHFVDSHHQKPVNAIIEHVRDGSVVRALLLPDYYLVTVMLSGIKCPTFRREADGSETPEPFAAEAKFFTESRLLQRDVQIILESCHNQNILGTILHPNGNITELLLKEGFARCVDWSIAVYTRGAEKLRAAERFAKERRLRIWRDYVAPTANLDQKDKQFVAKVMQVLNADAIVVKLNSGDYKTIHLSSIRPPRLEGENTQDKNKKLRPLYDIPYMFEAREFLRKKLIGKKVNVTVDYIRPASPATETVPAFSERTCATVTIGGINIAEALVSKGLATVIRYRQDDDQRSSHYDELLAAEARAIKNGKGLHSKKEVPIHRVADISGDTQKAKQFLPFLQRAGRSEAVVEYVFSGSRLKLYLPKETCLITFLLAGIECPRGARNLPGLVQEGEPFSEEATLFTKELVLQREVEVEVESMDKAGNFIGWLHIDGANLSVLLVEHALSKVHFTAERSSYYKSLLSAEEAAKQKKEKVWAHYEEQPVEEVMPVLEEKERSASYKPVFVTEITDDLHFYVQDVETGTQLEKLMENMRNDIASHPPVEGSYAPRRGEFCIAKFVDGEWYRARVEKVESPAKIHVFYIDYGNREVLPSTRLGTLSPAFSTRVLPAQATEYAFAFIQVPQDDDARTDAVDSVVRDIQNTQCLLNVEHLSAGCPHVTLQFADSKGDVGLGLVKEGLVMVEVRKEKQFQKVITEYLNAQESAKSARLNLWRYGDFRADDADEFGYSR

[2] = target: Pyruvate kinase PKM (PKM) (Homo sapiens, UniProt P14618); assay: TMT LC-MSMS of 11-labelled proteins; assay type: cell-based
[3] = sheet Exp1, SKBR3 cells, 11 0.5 µM 3 h vs DMSO
[4] = sheet Exp1, SKBR3 cells, 11 0.5 µM 3 h vs with PU-H71 10 µM
[5] = sheet Merged, SKBR3 cells, 11 0.5 µM 3 h vs DMSO
[6] = sheet Merged, SKBR3 cells, 11 0.5 µM 3 h vs with PU-H71 10 µM

Sequence of Pyruvate kinase PKM (PKM) (P14618 whole entry): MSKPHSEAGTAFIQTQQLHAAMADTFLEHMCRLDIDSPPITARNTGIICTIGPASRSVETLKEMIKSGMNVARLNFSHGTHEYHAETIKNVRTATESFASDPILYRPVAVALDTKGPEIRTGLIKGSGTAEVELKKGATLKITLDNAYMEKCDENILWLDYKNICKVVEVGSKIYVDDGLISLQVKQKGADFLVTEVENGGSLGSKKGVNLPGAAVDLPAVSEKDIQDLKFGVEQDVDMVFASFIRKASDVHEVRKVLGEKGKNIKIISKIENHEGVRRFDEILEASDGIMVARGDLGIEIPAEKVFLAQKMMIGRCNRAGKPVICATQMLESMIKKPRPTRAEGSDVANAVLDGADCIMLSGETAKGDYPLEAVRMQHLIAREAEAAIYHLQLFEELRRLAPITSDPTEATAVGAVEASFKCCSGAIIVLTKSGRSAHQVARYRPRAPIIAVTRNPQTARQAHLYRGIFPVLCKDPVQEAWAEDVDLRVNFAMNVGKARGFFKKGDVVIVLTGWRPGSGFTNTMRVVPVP

Abundance Ratio: (11) / (11 with PU-H71) ([1]; Exp3, SND1): 0.662
Abundance Ratio: (11) / (DMSO) ([1]; Exp3, SND1): 1.871
Abundances (Grouped): 11 ([1]; Exp3, SND1): 30.5
Abundances (Grouped): 11 with PU-H71 ([1]; Exp3, SND1, with PU-H71): 46.1
Abundance Ratio: (11) / (DMSO) [1, 3]: 2.172
Abundance Ratio: (11) / (11 with PU-H71) [1, 4]: 0.838
Abundance Ratio: (11) / (DMSO) [1, 5]: 2.016
Abundance Ratio: (11) / (11 with PU-H71) [1, 6]: 0.745
Abundance Ratio: (11) / (11 with PU-H71) ([2]; Exp3, PKM): 1.148
Abundance Ratio: (11) / (DMSO) ([2]; Exp3, PKM): 2.441
Abundances (Grouped): 11 ([2]; Exp3, PKM): 100.1
Abundances (Grouped): 11 with PU-H71 ([2]; Exp3, PKM): 87.2
Abundance Ratio: (11) / (DMSO) [2, 3]: 3.506
Abundance Ratio: (11) / (11 with PU-H71) [2, 4]: 0.917
Abundance Ratio: (11) / (11 with PU-H71) ([2]; sheet Exp2, PKM): 0.916
Abundance Ratio: (11) / (DMSO) ([2]; sheet Exp2, PKM): 2.005
Abundances (Grouped): 11 ([2]; sheet Exp2, PKM): 121.5
Abundances (Grouped): 11 with PU-H71 ([2]; sheet Exp2, PKM): 132.6
Abundance Ratio: (11) / (DMSO) [2, 5]: 3.4
Abundance Ratio: (11) / (11 with PU-H71) [2, 6]: 0.922
Structure (SMILES): CC(=O)Oc1ccc2c(c1)Oc1cc(OC(C)=O)ccc1C21OC(=O)c2cc(C(=O)NCCOCCOCCNC(=O)CCCC(=O)N(CC#N)S(=O)(=O)c3ccc(C(=O)NCCCn4c(Sc5cc6c(cc5I)OCO6)nc5c(N)ncnc54)cc3)ccc21 [compound 11]

Reference: article PMC5951806, “Rapid labelling and covalent inhibition of intracellular native proteins using ligand-directed N-acyl-N-alkyl sulfonamide” (Nature Communications, 2018)
